From PubChem BioAssay (NCI)
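Protocol summary: plate cells (96-well), add compound at 5 concentrations, incubate 48 h, interpolate endpoints linearly. GI50 is the concentration that inhibits growth by half. The concentration for full growth arrest is given as TGI.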

Assays:
Assay in all cases: growth of human tumour cells (NCI), 48 h
[1] = test system: 786-0 renal
[2] = test system: A498 renal
[3] = test system: A549 NSCLC
[4] = test system: ACHN renal
[5] = test system: BT-549 breast
[6] = test system: CAKI-1 renal
[7] = test system: CCRF-CEM leukemia
[8] = test system: COLO 205 colon
[9] = test system: DU-145 prostate
[10] = test system: EKVX NSCLC
[11] = test system: HCC-2998 colon
[12] = test system: HCT-116 colon
[13] = test system: HCT-15 colon
[14] = test system: HL-60(TB) leukemia
[15] = test system: HOP-62 NSCLC
[16] = test system: HS 578T breast
[17] = test system: HT29 colon
[18] = test system: IGROV1 ovarian
[19] = test system: K-562 leukemia
[20] = test system: KM12 colon
[21] = test system: LOX IMVI melanoma
[22] = test system: M14 melanoma
[23] = test system: MALME-3M melanoma
[24] = test system: MCF7 breast
[25] = test system: MDA-MB-231 breast
[26] = test system: MDA-MB-435
[27] = test system: MOLT-4 leukemia
[28] = test system: NCI-H23 lung
[29] = test system: NCI-H460 lung
[30] = test system: NCI-H522 lung
[31] = test system: NCI/ADR-RES ovarian
[32] = test system: OVCAR-3 ovarian
[33] = test system: OVCAR-4 ovarian
[34] = test system: OVCAR-5 ovarian
[35] = test system: OVCAR-8 ovarian
[36] = test system: PC-3 prostate
[37] = test system: RPMI-8226 leukemia
[38] = test system: RXF 393 renal
[39] = test system: SF-268 CNS
[40] = test system: SF-295 CNS
[41] = test system: SF-539 CNS
[42] = test system: SK-MEL-2 melanoma
[43] = test system: SK-MEL-28 melanoma
[44] = test system: SK-MEL-5 melanoma
[45] = test system: SK-OV-3 ovarian
[46] = test system: SN12C renal
[47] = test system: SNB-19 CNS
[48] = test system: SNB-75 CNS
[49] = test system: SR leukemia
[50] = test system: SW-620 colon
[51] = test system: T-47D breast
[52] = test system: TK-10 renal
[53] = test system: U251 CNS
[54] = test system: UACC-257 melanoma
[55] = test system: UACC-62 melanoma
[56] = test system: UO-31 renal

## N#Cc1cc(-c2ccccc2)[nH]c1-c1nccc2ccccc12
[1]
  GI50: 26.9 µM
  TGI: > 100 µM
[2]
  GI50: 26.3 µM
  TGI: > 100 µM
[3]
  GI50: 13.9 µM
  TGI: > 100 µM
[4]
  GI50: 18.5 µM
  TGI: > 100 µM
[5]
  GI50: 10.1 µM
  TGI: > 100 µM
[6]
  GI50: 12.5 µM
  TGI: > 100 µM
[7]
  GI50: 14 µM
  TGI: > 100 µM
[8]
  GI50: 11.7 µM
  TGI: 33.2 µM
[9]
  GI50: 32.3 µM
  TGI: > 100 µM
[10]
  GI50: 5.86 µM
  TGI: > 100 µM
[11]
  GI50: 18.9 µM
  TGI: > 100 µM
[12]
  GI50: 9.13 µM
  TGI: > 100 µM
[13]
  GI50: 20.6 µM
  TGI: > 100 µM
[14]
  GI50: 8.52 µM
  TGI: 82.6 µM
[15]
  GI50: 29 µM
  TGI: > 100 µM
[16]
  GI50: 37.6 µM
  TGI: > 100 µM
[17]
  GI50: 30.5 µM
  TGI: > 100 µM
[18]
  GI50: 23.3 µM
  TGI: > 100 µM
[19]
  GI50: 6.04 µM
  TGI: > 100 µM
[20]
  GI50: 20.7 µM
  TGI: > 100 µM
[21]
  GI50: 15.6 µM
  TGI: > 100 µM
[22]
  GI50: 14.9 µM
  TGI: 84.7 µM
[23]
  GI50: 13 µM
  TGI: 84.5 µM
[24]
  GI50: 5.76 µM
  TGI: > 100 µM
[25]
  GI50: 19.4 µM
  TGI: > 100 µM
[26]
  GI50: 10.5 µM
  TGI: 78.1 µM
[27]
  GI50: 7.15 µM
  TGI: 52.2 µM
[28]
  GI50: 6.31 µM
  TGI: > 100 µM
[29]
  GI50: 18.1 µM
  TGI: > 100 µM
[30]
  GI50: 12.4 µM
  TGI: 98 µM
[31]
  GI50: 6.44 µM
  TGI: > 100 µM
[32]
  GI50: 21.9 µM
  TGI: > 100 µM
[33]
  GI50: 3.43 µM
  TGI: > 100 µM
[34]
  GI50: 31.7 µM
  TGI: > 100 µM
[35]
  GI50: 22.7 µM
  TGI: > 100 µM
[36]
  GI50: 11.8 µM
  TGI: > 100 µM
[37]
  GI50: 4.35 µM
  TGI: 53.2 µM
[38]
  GI50: 13.6 µM
  TGI: 89.1 µM
[39]
  GI50: 22.6 µM
  TGI: > 100 µM
[40]
  GI50: 7.07 µM
  TGI: > 100 µM
[41]
  GI50: 32.7 µM
  TGI: > 100 µM
[42]
  GI50: 11.9 µM
  TGI: 81 µM
[43]
  GI50: 26.5 µM
  TGI: > 100 µM
[44]
  GI50: 3.58 µM
  TGI: 15.2 µM
[45]
  GI50: 17.8 µM
  TGI: > 100 µM
[46]
  GI50: 23.9 µM
  TGI: > 100 µM
[47]
  GI50: 31.3 µM
  TGI: > 100 µM
[48]
  GI50: 13.7 µM
  TGI: > 100 µM
[49]
  GI50: 5.72 µM
  TGI: > 100 µM
[50]
  GI50: 61.5 µM
  TGI: > 100 µM
[51]
  GI50: 3.06 µM
  TGI: 45.2 µM
[52]
  GI50: 25.3 µM
  TGI: > 100 µM
[53]
  GI50: 25.1 µM
  TGI: > 100 µM
[54]
  GI50: 7.81 µM
  TGI: 60.1 µM
[55]
  GI50: 7.36 µM
  TGI: > 100 µM
[56]
  GI50: 6.81 µM
  TGI: > 100 µM
